Series [1] has as its system taste testers. The series can be described thus: Determination of the taste quality. Type of series: in vivo. As for the experimental part: The tests were performed in analogy to the method of DuBois, G. A. Crosby, R. A. Stephanson and R. E. Wingard Jr., J. Agric. […] The test compounds were used as aqueous solutions at a concentration which corresponds to an about 5% saccharose solution. As comparison compound saccharose was used. The tests were carried out under identical conditions. Only the characterization of the taste was evaluated, because the intensity was already determined in the preceding experiments. The following criteria were determined by each tester: Percentage sweet to percentage bitter to percentage another taste quality. Furthermore, the presence or absence of an after taste of the individual test compounds was determined. Each substance was tested twice with regard to five different determinations.

Series [2] concerns taste testers. The series can be described thus: Determination of the relative sweetening power in comparison to saccharose. Type of series: in vivo. As to conditions: compared with 3% aqueous solution of saccharose. The source says:
The relative sweetening power (often also defined as degree of sweetness) of sweetening agents in comparison with saccharose (cane sugar) varies considerably with concentration. […] Therefore, for the determination of the relative sweetening power of the test compounds a 3% aqueous solution of saccharose was always used for comparison.

Series [3] concerns taste testers. The series can be described thus: Determination of the threshold concentration (sweet taste). Type of series: in vivo. As for the experimental part:
Aqueous solutions having concentrations of 1:12,500, 1:25,000, 1:50,000, and 1:100,000 were prepared of test compounds A, B and C and of comparison compounds X, Y and Z, and each was evaluated at 5 taste testers according to the following scoring system: Very sweet (=3 points), medium sweet (=2 points), weakly sweet (=1 point), and not sweet (=0 point). The tests were carried out as described by H. G. Schutz and F. J. Pilgrim in Food Research 22, 206 (1957). The dilution perceptible as sweet was defined as having the concentration at which the average value of the evaluation points reached 1.0 or more.

Series [4] deals with taste testers. As to conditions: prior knowledge; cited from earlier work.
For series [5] the following is noted: prior knowledge; cited from earlier work.
Series [6] deals with taste testers. As to conditions: prior knowledge; cited from earlier work. This is another data set of the same source.
The conditions of series [7]: Batzinger et al., Science 198, 944 (1977); cited from earlier work.
The test system of series [8] is thrombocyte aggregation. Kind of series: Effect on thrombocyte aggregation induced by collagen. Type of series: cell-based. As to conditions: read-out: Change in % max. aggregation rate. As for the experimental part:
The thrombocyte aggregation was measured according to Born and Cross [J. Physiol. 170, 397 (1964)] in platelet-rich plasma obtained by centrifuging citrate blood. The change in the maximum aggregation rate in % compared with a control, and the percent change in the "optical density" were the measured parameters. The aggregation was induced by collagen.

Data on 7 compounds can be found in patent publication US4404230A, “4-Hydroxy-1,2-Benzisothiazol-3(2H)-one-1,1-dioxides and salts thereof” (priority 1980, dated 1983).

In the case of `OC[C@H]1O[C@@](CO)(O[C@H]2O[C@H](CO)[C@@H](O)[C@H](O)[C@H]2O)[C@@H](O)[C@@H]1O` [Saccharose, saccharose, reference compound], in series [1] (1:20, 10 determinations), the After taste was determined as 4, the Percentage bitter is 0%, the Percentage other taste is 2% and the Percentage sweet is 98%.
For `O=C1NS(=O)(=O)c2cccc(O)c21` [Substance A, 4-hydroxy-1,2-benzisothiazol-3(2H)-one-1,1-dioxide], in series [2], the “Relative sweetening power (Saccharose = 1)” value (shortened to “Relative sweetening power”) is given as 210. In addition, the “Average value of evaluation points” value in series [3] (concentration 1:25000) worked out at 2.4 points. In series [3] (concentration 1:50000), the “Average value of evaluation points” value is listed as 1.0 points. Moreover, the “Average value of evaluation points” value in series [3] (concentration 1:100000) stood at 0.2 points. The “purity of the taste” value in series [1] is recorded as 94-96%. In series [1] (1:10000, 10 determinations), this compound came in with an After taste of 3, a Percentage bitter of 2%, a Percentage other taste of 4% and a Percentage sweet of 94%.
Regarding `O=C1NS(=O)(=O)c2cc(O)cc(O)c21` [Substance C, 4,6-Dihydroxy-1,2-benzoisothiazol-3(2H)-one-1,1-dioxide], the “Relative sweetening power” value in series [2] is given as 180. The “Average value of evaluation points” value in series [3] (concentration 1:25000) is listed as 1.8 points. Also, the “Average value of evaluation points” value in series [3] (concentration 1:50000) was 1.0 points. Besides, the “Average value of evaluation points” value in series [3] (concentration 1:100000) came to 0.0 points. Moreover, the “purity of the taste” value in series [1] was 86%. In series [1] (1:10000, 10 determinations), this compound registered an After taste of 8, a Percentage bitter of 3%, a Percentage other taste of 11% and a Percentage sweet of 86%.
Take `O=S(=O)(O)NC1CCCCC1` [X, cyclamate, reference compound]: in series [2], the “Relative sweetening power” value was found to be 45. In addition, the “sweetening power compared with saccharose (in words)” value in series [4] was “much better than that of the saccharose”. The “toxicological tests at higher dosages” value in series [5] is “not without objection”. In addition, the “Average value of evaluation points” value in series [3] (concentration 1:12500) came to 0.6 points; in series [3] (concentration 1:25000), 0.2 points; in series [3] (concentration 1:50000), 0.0 points.
Take `O=C1NS(=O)(=O)c2ccccc21` [Y, saccharine, reference compound]: the “sweetening power compared with saccharose (in words)” value in series [4] is reported as “much better than that of the saccharose”. In series [3] (concentration 1:25000), the “Average value of evaluation points” value is 2.4 points. In addition, the “Average value of evaluation points” value in series [3] (concentration 1:50000) turned out to be 1.2 points. Moreover, the “Average value of evaluation points” value in series [3] (concentration 1:100000) was 0.4 points. Also, the “taste profile compared with saccharose” value in series [1] is listed as “not even approached”. In series [1] (1:10000, 10 determinations), this compound came in with an After taste of 80, a Percentage bitter of 21%, a Percentage other taste of 7% and a Percentage sweet of 72%. For the same compound, in series [6], the “after taste and concurrent taste” value was “metallic, bitter after taste and the bitter concurrent taste”. For the same compound, in series [7], the mutagenic effect entry is reported as “shows a mutagenic effect”.
Regarding `O=C1NS(=O)(=O)c2cc(O)ccc21` [Z, 6-hydroxy-1,2-benzisothiazol-3(2H)-one-1,1-dioxide, reference compound], the “Relative sweetening power” value in series [2] amounted to 140. Further, the “Average value of evaluation points” value in series [3] (concentration 1:25000) is listed as 1.4 points. The “Average value of evaluation points” value in series [3] (concentration 1:50000) was 0.6 points. Also, in series [3] (concentration 1:100000), the “Average value of evaluation points” value amounted to 0.0 points. The “taste profile compared with saccharose” value in series [1] was “not even approached”. Also, in series [1] (1:10000, 10 determinations), the After taste amounted to 29, the Percentage bitter came out at 7%, the Percentage other taste came out at 12% and the Percentage sweet was 81%.
`O=C1NS(=O)(=O)c2cccc(O)c21.[Na]` [sodium salt]: the change in maximum aggregation rate vs control at 100 µM in series [8] was determined as 0%.
